Laboratory results reported in patent US20050282840A1, “Methods of modulating neurotrophin-mediated activity” (PainCeptor Pharma Corporation, priority 2004, published 2005).

Legend:
[1] = target: T1, p75^NTR (Rattus norvegicus, UniProt P07174); test: 125I-BDNF crosslinking to p75^NTR receptors on nnr5 cells; format: binding; settings: 0.1 nM 125I-BDNF, 2 h at 4° C., read-out: IC50 (mean±S.E.M), inhibition of 125I-BDNF crosslinking to p75^NTR
T1 construct: ^125I-BDNF crosslinking to p75^NTR receptors on nnr5 cells expressing p75^NTR; endogenous in cells; host or cells: PC12^nnr5 cells (TrkB-transfected)
T1 sequence (P07174 30-425): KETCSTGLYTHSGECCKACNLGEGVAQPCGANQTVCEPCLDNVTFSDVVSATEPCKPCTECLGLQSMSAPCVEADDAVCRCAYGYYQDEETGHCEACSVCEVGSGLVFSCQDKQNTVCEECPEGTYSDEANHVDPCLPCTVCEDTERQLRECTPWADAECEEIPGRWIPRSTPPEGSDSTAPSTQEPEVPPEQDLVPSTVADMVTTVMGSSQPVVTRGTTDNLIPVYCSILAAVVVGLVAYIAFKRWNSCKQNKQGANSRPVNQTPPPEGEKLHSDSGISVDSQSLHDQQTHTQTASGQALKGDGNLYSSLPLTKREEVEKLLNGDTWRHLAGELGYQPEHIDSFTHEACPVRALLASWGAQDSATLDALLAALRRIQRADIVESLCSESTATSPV
T1 sequence (P23560 129-247 partner): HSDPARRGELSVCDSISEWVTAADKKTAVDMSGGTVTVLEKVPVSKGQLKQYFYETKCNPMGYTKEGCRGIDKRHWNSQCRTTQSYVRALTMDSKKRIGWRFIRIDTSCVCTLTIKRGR
Method: Cells were incubated at 37° C. in 5% CO2. PC12 and PC12^nnr5 cells were maintained in RPMI-1640 medium supplemented with 10% fetal calf serum (FCS); cells were harvested by replacing the medium with calcium-magnesium-free balanced salt (Gey's) solution and incubating at 37° C. for 15 min. NIH-3T3 cells were grown in Dulbecco's modified Eagle medium: F12 containing 5% FCS; cells were harvested by replacing the medium with a 0.25% trypsin-0.53 mM ethylenediaminetetraacetic acid (EDTA) solution and incubating at 37° C. for 5 min.
The full-length TrkB cDNA was cloned into the CMV plasmid vector. Transient expression of TrkB in PC12^nnr5 cells was achieved by transfecting the cells with the TrkB expression vector using Lipofectamine Plus reagents (Invitrogen Canada Inc; Burlington, ON). PC12^nnr5 cells were passed through a syringe fitted with a 21-gauge needle several times to prevent clumping. In a 100 mm dish, 10×10^6 cells were plated and used for transfection the next day. […]
PC12 cells or TrkB-expressing PC12^nnr5 cells were recovered using Gey's solution, pelleted by centrifugation, and suspended in HKR (HEPES-Krebs Ringer Solution; [10 mM HEPES, 125 mM NaCl, 4.8 mM KCl, 1.3 mM CaCl2.2H2O, 1.2 mM MgSO4, 1.2 mM KH2PO4, 1 mg/mL BSA, 1 mg/mL glucose, pH 7.35]). […] Dried gels were registered to the autoradiograph and each labeled protein band was quantified by direct gamma counting. […]

[2] = system: p75; test: Neurotrophin-receptor crosslinking assay, 125I-BDNF (Example 3); format: binding
Method: (§1) PC12 cells or TrkB-expressing PC12^nnr5 cells were recovered using Gey's solution, pelleted by centrifugation, and suspended in HKR (HEPES-Krebs Ringer Solution; [10 mM HEPES, 125 mM NaCl, 4.8 mM KCl, 1.3 mM CaCl2.2H2O, 1.2 mM MgSO4, 1.2 mM KH2PO4, 1 mg/mL BSA, 1 mg/mL glucose, pH 7.35]). In a total volume of 1 mL, 1×10^6 cells were incubated, rotating, with 0.1 nM ^125I-BDNF or ^125I-NGF and additions (Compound A or Compound B at the indicated final concentrations) for 2 h at 4° C. At the conclusion of the binding reaction, a 20 μL volume of BS^3 was added to a final concentration of 0.4 mM and incubated, rocking, for an additional 30 min at room temperature. Cells were washed twice in TBS. For analysis of ^125I-NGF crosslinking to TrkA, ^125I-NGF crosslinking to p75^NTR, and ^125I-BDNF crosslinking to p75^NTR, samples were solubilized directly in SDS sample buffer and heated for 10 min at 95° C. For analysis of ^125I-BDNF crosslinking to TrkB, samples were immunoprecipitated with a pan-Trk antibody. All samples were electrophoresed on a 6% SDS-polyacrylamide gel, dried, and autoradiographed. Dried gels were registered to the autoradiograph and each labeled protein band was quantified by direct gamma counting. Non-linear regression analysis was performed by Prism 3.0 to generate concentration-effect curves and determine IC50 values.
(§2) The neurotrophin-receptor crosslinking assay described in Example 1 was used to determine binding of compounds 65, 3, 43 and 97 to ^125I-NGF and ^125I-BDNF.
(§3) ^1The p75 band was excised from the gel and cpm were determined on a gamma counter. Values were calculated as follows: [formula]
(§4) ^2An aliquot of the total crosslinked sample in SDS-sample buffer was counted on a gamma counter. Values were calculated as follows: [formula]

[3] = target: T2, p75^NTR receptors (PC12 cells) (Rattus norvegicus, UniProt P07174); test: Basic screening assay: binding of 125I-BDNF to PC12 cells
T2 construct: endogenous in cells; host or cells: PC12 cells
T2 sequence (P07174 30-425): T1 sequence (P07174 30-425)
T2 sequence (P23560 129-247 partner): T1 sequence (P23560 129-247 partner)
In short: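 4×10^6 PC12 cells incubated 2 h at 4° C, rotating, with 0.5 nM ^125I-BDNF (final) and compound at 50 μM, in duplicate or more. Bound ligand separated through 10% glycerol by centrifugation and counted by gamma counter; specific binding is Bmax minus NSB; inhibitors followed up for EC50.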

[4] = system: p75^NTR receptors (PC12 cells); test: Basic screening assay: binding of 125I-NGF to PC12 cells
In short: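 PC12 cells (4×10^6) incubated 2 h at 4° C with 0.5 nM 125I-NGF and test compound at 50 μM, rotating. Bound tracer pelleted through 10% glycerol and gamma-counted; specific binding expressed as percent of control after NSB subtraction.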

[5] = system: p75; test: Neurotrophin-receptor crosslinking assay, 125I-NGF (Example 3); format: binding
Method: as §1, §2, §3, §4

[6] = crosslinked sample counted on gamma counter
[7] = p75 band counted on gamma counter

IC50 [1] [µM] | 125I-BDNF X-linking Sample (% binding) [2, 6] | 125I-BDNF X-linking p75 band (% binding) [2, 7] | 125I-BDNF Binding (% binding) ([3]; Example 3 table) | activity at 50 µM ([3]; Table 4, test compound 50 μM, 0.5 nM 125I-BDNF, PC12 cells, 2 h at 4° C., specific binding as percent of control, read-out: BDNF Activity % Maximal Binding) [%] | 125I-NGF X-linking Sample (% binding) [5, 6] | 125I-NGF X-linking p75 band (% binding) [5, 7] | SMILES | 125I-NGF Binding (% binding) ([4]; Example 3 table) | NGF Activity % Maximal Binding ([4]; Table 4, test compound 50 μM, 0.5 nM 125I-NGF, PC12 cells, 2 h at 4° C., specific binding as percent of control)
15.64 ± 0.05 |  |  |  |  |  |  | COc1ccc(-c2ccc(C=C3C(=O)N(c4ccc(C(=O)O)cc4)N=C3C)o2)c([N+](=O)[O-])c1 (racemic) [Compound A, 4-{4-[5-(4-Methoxy-2-nitro-phenyl)-furan-2-ylmethylene]-3-methyl-5-oxo-4,5-dihydro-pyrazol-1-yl}-benzoic acid] |  | 
 | * (50 < *) | XX (30 < XX < 40) | * (50 < *) | > 50 | * (50 < *) | * (50 < *) | O=C1NC(=O)/C(=C\c2ccc(-c3ccc(Cl)c([N+](=O)[O-])c3)o2)S1 [Compound 97, 5-[5-(4-Chloro-3-nitrophenyl)furan-2-ylmethylene]-thiazolidine-2,4-dione] | * (50 < *) | * (50 < *)
10.56 ± 0.05 |  |  |  |  |  |  | NS(=O)(=O)c1ccc(-c2ccc(/C=C3/SC(=S)N(CCC(=O)O)C3=O)o2)cc1 [Compound B] |  | 
